In paper PMC11335189, “Revealing molecular determinants governing mambalgin-3 pharmacology at acid-sensing ion channel 1 variants” (Cellular and Molecular Life Sciences: CMLS, 2024):
Positions of bridges follow the written chain, without caps; N, C: chain ends. No end group written: not given here.

Columns and labels:
[1] = molecular target: T1, rASIC1b N324K (Rattus norvegicus, UniProt P55926, N291K); test: TEVC oocytes, rASIC1b N324K mutant; assay type: cell-based; settings: 300 nM Ma-3, conditioning pH 7.45; Hill fit, n = 5–6
T1 construct: expressed in transfected cells; host or cells: Xenopus laevis oocytes injected with cRNA
T1 sequence (P55926 1-559 isoform P55926-3 N324K): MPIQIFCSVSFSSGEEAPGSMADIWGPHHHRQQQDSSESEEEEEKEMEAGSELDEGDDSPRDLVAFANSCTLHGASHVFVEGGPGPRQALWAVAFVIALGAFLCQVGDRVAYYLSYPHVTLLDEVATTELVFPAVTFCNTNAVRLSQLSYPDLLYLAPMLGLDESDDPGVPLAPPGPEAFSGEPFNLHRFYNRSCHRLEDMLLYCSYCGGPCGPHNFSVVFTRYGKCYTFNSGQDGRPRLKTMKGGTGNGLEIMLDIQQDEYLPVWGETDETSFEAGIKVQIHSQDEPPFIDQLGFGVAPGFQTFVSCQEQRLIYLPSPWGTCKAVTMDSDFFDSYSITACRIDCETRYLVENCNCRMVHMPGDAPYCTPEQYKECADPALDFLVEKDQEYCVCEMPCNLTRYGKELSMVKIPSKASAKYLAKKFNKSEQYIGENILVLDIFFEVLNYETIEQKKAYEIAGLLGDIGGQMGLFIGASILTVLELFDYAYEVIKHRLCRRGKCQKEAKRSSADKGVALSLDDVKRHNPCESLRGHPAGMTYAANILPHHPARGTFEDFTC
Description: (§1) Two-electrode voltage-clamp (TEVC) experiments using Xenopus laevis oocytes were conducted as previously described. Briefly, oocytes were surgically removed from anaesthetised female frogs, then treated with collagenase (~ 1 mg/ml, Sigma type I) for 2 h under agitation at room temperature. cRNAs were synthesised using a mMessage mMachine T7 or SP6 transcription kit (Thermo Fisher Scientific Australia Pty Ltd, Scoresby, VIC, Australia) and injected into healthy stage V–VI oocytes at 0.2–20 ng per cell. […] Membrane currents were recorded 2–7 days after cRNA-injection under voltage-clamp at -60 mV (Axon Axoclamp 900 A, Molecular Devices, CA, USA) using two standard glass microelectrodes of 0.5–1 MΩ resistance when filled with 3 M KCl solution. […]
(§2) Specific to this work, the standard protocol was for oocytes to be conditioned at pH 7.45 and channels stimulated every 60 s using a 5 s pH 5 or 6 application, unless stated otherwise. […] Activation curves were determined by conditioning oocytes at pH 8 (Fig. 2e − g; and Fig. 5a and b) or 7.45 (Fig. 6; and Supplementary Fig. 2d and c) for 55 s and applying low pH stimuli from 7.25 to 5.0 for 5 s. Steady-state desensitisation (SSD) was determined by applying conditioning solutions of pH values from 8 to 6 for 115 s prior to stimulation by a pH drop to 5 for 5 s. […] Control pH-dependence curves were determined in the absence of any Ma-3. […]

[2] = tested on: rASIC1a: rASIC1b chimera C92; test: TEVC oocytes, rASIC1a: rASIC1b chimera C92; assay type: cell-based, rat; settings: conditioning pH 7.45, stimulating pH 5
Description: as §1, §2

H-SLKCYQHGKVVTCHRDMKFCYHNIGMPFRNLKLILQGCSSSCSETENNKCCSTDRCNK (disulfide 4-20, 13-38, 42-50, 51-56 (inferred)) [Ma-3, mambalgin-3]
pH50 of activation in presence of Ma-3 [1]: 6.21 | activity of 300 nM Ma-3 [2]: only partially inhibited
